The values below come from patent publication US6962941B2, “Tryptase inhibitors” (Altana Pharma AG, priority 2001, dated 2005).

This assay deals with human tryptase. The experiment in a line: Inhibition of human tryptase (apparent dissociation constant, tos-Gly-Pro-Arg-pNA cleavage). In kind it is biochemical. Conditions: pKiapp = -log Kiapp (mol/l), in the presence of substrate, heparin 0.1-50 μg/ml. The text has this: The documented pathophysiological effects of mast cell tryptase are brought about directly by the enzymatic activity of the protease. Accordingly, they are reduced or blocked by inhibitors which inhibit the enzymatic activity of tryptase. A suitable measure of the affinity of a reversible inhibitor for the target protease is the equilibrium dissociation constant Ki of the enzyme/inhibitor complex. This value of Ki can be determined via the influence of the inhibitor on the tryptase-induced cleavage of a chromogenic peptide-p-nitroanilide substrate or of a fluorogenic peptide-aminomethylcoumarin substrate.
The dissociation constants for the tryptase/inhibitor complexes are determined under equilibrium conditions in accordance with the general proposals of Bieth (Bieth J. G., Pathophysiological Interpretation of kinetic constants of protease inhibitors, Bull. Europ. Physiopath. Resp. 16:183-195, 1980) and the methods of Sommerhoff et al. (Sommerhoff C. P. et al., A Kazal-type inhibitor of human mast cell tryptase: Isolation from the medical leech Hirudo medicinalis, characterization, and sequence analysis, Biol. Chem. Hoppe-Seyler 375: 685-694, 1994).
Human tryptase is prepared pure from lung tissue or is prepared by recombination; the specific activity of the protease which has been determined by titration is normally more than 85% of the theoretical value. […]

On to `COC(=O)C1CC(NC(=O)OCC#CCOC(=O)NC2CC(C(=O)OC)N(C(=O)CCc3cccc(CN)c3)C2)CN1C(=O)CCc1cccc(CN)c1.Cl.Cl` (stereo not shown) [Compound 1, 1,4-Bis-{N-[3-(3-aminomethylphenylproplonyl)-2-methoxycarbonylpyrrolidin-4-yl]aminocarbonyloxy}-2-butyne dihydrochloride], for which the pKiapp was 8.35.
